Among the data in patent US20110313156A1 (BOEHRINGER INGELHEIM INTERNATIONAL GMBH, priority 2008, published 2011) are remaining activity values, retold here.

This assay deals with T1, His6-PDK1 (aa 52-556) (Homo sapiens, UniProt O15530).
T1 construct: 15 μL His6-PDK1 (aa 52-556) 3.33 ng/well); host or cells: baculovirus-infected insect cells
T1 sequence (O15530 52-556): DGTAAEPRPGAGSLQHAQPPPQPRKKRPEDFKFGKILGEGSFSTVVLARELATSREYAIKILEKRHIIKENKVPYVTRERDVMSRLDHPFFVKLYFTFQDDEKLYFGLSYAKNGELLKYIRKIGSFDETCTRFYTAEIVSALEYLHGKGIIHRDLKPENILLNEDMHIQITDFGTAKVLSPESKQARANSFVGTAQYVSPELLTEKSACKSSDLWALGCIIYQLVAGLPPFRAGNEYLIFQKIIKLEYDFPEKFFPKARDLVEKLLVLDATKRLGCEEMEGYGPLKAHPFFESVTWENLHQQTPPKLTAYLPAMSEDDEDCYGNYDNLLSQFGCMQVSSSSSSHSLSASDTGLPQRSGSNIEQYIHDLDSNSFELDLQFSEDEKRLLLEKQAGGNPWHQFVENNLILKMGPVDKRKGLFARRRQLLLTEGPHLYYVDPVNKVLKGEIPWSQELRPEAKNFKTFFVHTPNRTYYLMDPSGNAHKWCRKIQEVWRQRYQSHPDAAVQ
The assay can be described thus: PDK1 kinase assay III (with Tween 20). Type of assay: biochemical. The conditions noted are these: compound at 10 μM; PDK1 kinase assay III (values without asterisk); read-out: % CTL (residual activity of the enzyme relative to DMSO control). The procedure: Purified enzyme may be obtained for example from the University of Dundee, Scotland.
Another PDK1 assay was developed which by comparison with PDK1 assay 1 additionally contains Tween 20:
The final concentration of Tween 20 is 0.005%.
The reaction is started by adding the ATP solution and the mixture is incubated for 90 min at ambient temperature; at the start of the reaction the dishes are shaken gently. The reaction is stopped by the addition of 50 μL/well of 500 mM phosphoric acid (H3PO4) and incubated for about 20 min at ambient temperature. […] The measured data are evaluated using Graphpad Prism software.
The % CTL values indicate the residual activity of the enzyme after the addition of the inhibitory compound in the solvent DMSO in relation to the enzyme activity in the solvent DMSO without the addition of a compound (control). The majority of the values were determined using the PDK1 kinase assay III described hereinbefore. The values marked with an asterisk (* or**) were determined using the PDK1 kinase assay II described hereinbefore (one asterisk→incubation for 24 h; two asterisks→incubation for 5 min)

Take `O=C1Nc2cc(/C=C/CNC(=O)c3cccc(Nc4ccc(F)c(F)c4)n3)ccc2/C1=C/c1cnc[nH]1` [I-20, 6-[(3,4-difluorophenyl)amino]-N-{(2E)-3-[(3Z)-3-(1H-imidazol-5-ylmethylidene)-2-oxo-2,3-dihydro-1H-indol-6-yl]prop-2-en-1-yl}pyridine-2-carboxamide]: the remaining activity at 10 µM was found to be 42.7%. On to `O=C1Nc2cc(/C=C/CNC(=O)c3cc(Cl)nn(Cc4ccc(F)c(F)c4)c3=O)ccc2/C1=C/c1cnc[nH]1` [I-33, 6-chloro-2-(3,4-difluorobenzyl)-N-{(2E)-3-[(3Z)-3-(1H-imidazol-5-ylmethylidene)-2-oxo-2,3-dihydro-1H-indol-6-yl]prop-2-en-1-yl}-3-oxo-2,3-dihydropyridazine-4-carboxamide], for which the remaining activity at 10 µM was 12%. On to `O=C1Nc2cc(/C=C/CNC(=O)c3cc(Cl)nn(Cc4ccc(F)c(F)c4)c3=O)ccc2/C1=C/c1ccc[nH]1` [I-34, 6-chloro-2-(3,4-difluorobenzyl)-3-oxo-N-{(2E)-3-[(3Z)-2-oxo-3-(1H-pyrrol-2-ylmethylidene)-2,3-dihydro-1H-indol-6-yl]prop-2-en-1-yl}-2,3-dihydropyridazine-4-carboxamide], for which the remaining activity at 10 µM is 21.4%. As for `Cc1nc(/C=C2\C(=O)Nc3cc(/C=C/CNC(=O)c4cncn(Cc5ccc(F)c(F)c5)c4=O)ccc32)c[nH]1` [I-35, 1-(3,4-difluorobenzyl)-N-[(2E)-3-{(3Z)-3-[(2-methyl-1H-imidazol-4-yl)methylidene]-2-oxo-2,3-dihydro-1H-indol-6-yl}prop-2-en-1-yl]-6-oxo-1,6-dihydropyrimidine-5-carboxamide], the figure is 10.7%; as for `O=C1Nc2cc(/C=C/CNC(=O)c3cncn(Cc4ccc(F)c(F)c4)c3=O)ccc2/C1=C/c1c[nH]c(-c2cccnc2)n1` [I-36, 1-(3,4-difluorobenzyl)-6-oxo-N-{(2E)-3-[(3Z)-2-oxo-3-{[2-(pyridin-3-yl)-1H-imidazol-4-yl]methylidene}-2,3-dihydro-1H-indol-6-yl]prop-2-en-1-yl}-1,6-dihydropyrimidine-5-carboxamide], 25.4%. The result for `O=C1Nc2cc(/C=C/CNC(=O)c3cncn(Cc4ccc(F)c(F)c4)c3=O)ccc2/C1=C/c1ncc[nH]1` [I-37, 1-(3,4-difluorobenzyl)-N-{(2E)-3-[(3Z)-3-(1H-imidazol-2-ylmethylidene)-2-oxo-2,3-dihydro-1H-indol-6-yl]prop-2-en-1-yl}-6-oxo-1,6-dihydropyrimidine-5-carboxamide] reads 16.6%. Regarding `Cc1c[nH]c(/C=C2\C(=O)Nc3cc(/C=C/CNC(=O)c4cncn(Cc5ccc(F)c(F)c5)c4=O)ccc32)n1` [I-38, 1-(3,4-difluorobenzyl)-N-[(2E)-3-{(3Z)-3-[(4-methyl-1H-imidazol-2-yl)methylidene]-2-oxo-2,3-dihydro-1H-indol-6-yl}prop-2-en-1-yl]-6-oxo-1,6-dihydropyrimidine-5-carboxamide], the remaining activity at 10 µM stood at 20.5%. Take `Cc1nc[nH]c1/C=C1\C(=O)Nc2cc(/C=C/CNC(=O)c3c(C)n(C)n(Cc4ccccc4)c3=O)ccc21` [I-39, 2-benzyl-1,5-dimethyl-N-[(2E)-3-{(3Z)-3-[(4-methyl-1H-imidazol-5-yl)methylidene]-2-oxo-2,3-dihydro-1H-indol-6-yl}prop-2-en-1-yl]-3-oxo-2,3-dihydro-1H-pyrazole-4-carboxamide]: the remaining activity at 10 µM stood at 18.6%. On to `Cc1c(C(=O)NC/C=C/c2ccc3c(c2)NC(=O)/C3=C\c2ncc[nH]2)c(=O)n(Cc2ccc(F)c(F)c2)n1C` [I-41, 2-(3,4-difluorobenzyl)-N-{(2E)-3-[(3Z)-3-(1H-imidazol-2-ylmethylidene)-2-oxo-2,3-dihydro-1H-indol-6-yl]prop-2-en-1-yl}-1,5-dimethyl-3-oxo-2,3-dihydro-1H-pyrazole-4-carboxamide], for which the remaining activity at 10 µM amounted to 16.6%.

With `Cc1c[nH]c(/C=C2\C(=O)Nc3cc(/C=C/CNC(=O)c4c(C)n(C)n(Cc5ccc(F)c(F)c5)c4=O)ccc32)n1` [I-42, 2-(3,4-difluorobenzyl)-1,5-dimethyl-N-[(2E)-3-{(3Z)-3-[(4-methyl-1H-imidazol-2-yl)methylidene]-2-oxo-2,3-dihydro-1H-indol-6-yl}prop-2-en-1-yl]-3-oxo-2,3-dihydro-1H-pyrazole-4-carboxamide], the remaining activity at 10 µM was 15.7%. The result for `Cn1cc(C(=O)NC/C=C/c2ccc3c(c2)NC(=O)/C3=C\c2cnc[nH]2)c(=O)n(Cc2ccc(F)c(F)c2)c1=O` [I-43] reads 20.3%; that for `O=C1Nc2cc(C#CCNC(=O)c3cncn(Cc4ccc(F)c(F)c4)c3=O)ccc2/C1=C/c1cnc[nH]1` [I-44, 1-(3,4-difluorobenzyl)-N-{3-[(3Z)-3-(1H-imidazol-5-ylmethylidene)-2-oxo-2,3-dihydro-1H-indol-6-yl]prop-2-yn-1-yl}-6-oxo-1,6-dihydropyrimidine-5-carboxamide], 15.6%; that for `O=C1Nc2cc(/C=C/CNC(=O)c3cncn(Cc4ccc(F)c(F)c4)c3=O)cc(F)c2/C1=C/c1cnc[nH]1` [I-46, 1-(3,4-difluorobenzyl)-N-{(2E)-3-[(3Z)-4-fluoro-3-(1H-imidazol-5-ylmethylidene)-2-oxo-2,3-dihydro-1H-indol-6-yl]prop-2-en-1-yl}-6-oxo-1,6-dihydropyrimidine-5-carboxamide], 15.6%. Turning to `Cc1nc[nH]c1/C=C1\C(=O)Nc2cc(/C=C/CNC(=O)c3cncn(Cc4ccc(F)c(F)c4)c3=O)cc(F)c21` [I-47, 1-(3,4-difluorobenzyl)-N-[(2E)-3-{(3Z)-4-fluoro-3-[(4-methyl-1H-imidazol-5-yl)methylidene]-2-oxo-2,3-dihydro-1H-indol-6-yl}prop-2-en-1-yl]-6-oxo-1,6-dihydropyrimidine-5-carboxamide], the remaining activity at 10 µM amounted to 17.2%. As for `Cc1c[nH]c(/C=C2\C(=O)Nc3cc(/C=C/CNC(=O)c4cncn(Cc5ccc(F)c(F)c5)c4=O)cc(F)c32)n1` [I-48, 1-(3,4-difluorobenzyl)-N-[(2E)-3-{(3Z)-4-fluoro-3-[(4-methyl-1H-imidazol-2-yl)methylidene]-2-oxo-2,3-dihydro-1H-indol-6-yl}prop-2-en-1-yl]-6-oxo-1,6-dihydropyrimidine-5-carboxamide], the figure is 23.1%; as for `NCc1[nH]cnc1/C=C1\C(=O)Nc2cc(/C=C/CNC(=O)c3cncn(Cc4ccc(F)c(F)c4)c3=O)ccc21` [I-49, N-{(2E)-3-[(3Z)-3-{[5-(aminomethyl)-1H-imidazol-4-yl]methylidene}-2-oxo-2,3-dihydro-1H-indol-6-yl]prop-2-en-1-yl}-1-(3,4-difluorobenzyl)-6-oxo-1,6-dihydropyrimidine-5-carboxamide], 12.6%. As to `Cc1c(C(=O)NC/C=C/c2ccc3c(c2)NC(=O)/C3=C\c2nc[nH]c2CN)c(=O)n(Cc2ccc(F)c(F)c2)n1C` [I-50, N-{(2E)-3-[(3Z)-3-{[5-(aminomethyl)-1H-imidazol-4-yl]methylidene}-2-oxo-2,3-dihydro-1H-indol-6-yl]prop-2-en-1-yl}-2-(3,4-difluorobenzyl)-1,5-dimethyl-3-oxo-2,3-di-hydro-1H-pyrazole-4-carboxamide], the remaining activity at 10 µM came out at 16.6%. As for `Cc1c(C(=O)NCC#Cc2ccc3c(-c4ccc[nH]4)n[nH]c3c2)c(=O)n(Cc2ccc(F)c(F)c2)n1C` [II-1, 2-(3,4-difluorobenzyl)-1,5-dimethyl-3-oxo-N-{3-[3-(1H-pyrrol-2-yl)-1H-indazol-6-yl]prop-2-yn-1-yl}-2,3-dihydro-1H-pyrazole-4-carboxamide], the figure is 13%; as for `O=C(NCC#Cc1ccc2cn[nH]c2c1)c1cncn(Cc2ccc(F)c(F)c2)c1=O` [II-2, 1-(3,4-difluorobenzyl)-N-[3-(1H-indazol-6-yl)prop-2-yn-1-yl]-6-oxo-1,6-dihydropyrimidine-5-carboxamide], 12.5%; as for `Cc1c(C(=O)NCC#Cc2ccc3cn[nH]c3c2)c(=O)n(Cc2ccc(F)c(F)c2)n1C` [II-3, 2-(3,4-difluorobenzyl)-N-[3-(1H-indazol-6-yl)prop-2-yn-1-yl]-1,5-dimethyl-3-oxo-2,3-dihydro-1H-pyrazole-4-carboxamide], 12.4%.

`Cc1c(C(=O)NCC#Cc2ccc3c(-c4ccccc4)n[nH]c3c2)c(=O)n(Cc2ccc(F)c(F)c2)n1C` [II-4, 2-(3,4-difluorobenzyl)-1,5-dimethyl-3-oxo-N-[3-(3-phenyl-1H-indazol-6-yl)prop-2-yn-1-yl]-2,3-dihydro-1H-pyrazole-4-carboxamide]: the remaining activity at 10 µM turned out to be 16.9%.
